# Reference: US8697873B2, “Amide substituted imidazopyridines, imidazoquinolines, and imidazonaphthyridines” (3M Innovative Properties Company, priority 2004, dated 2014)
row,Structure (SMILES),melting point [°C]
1,"CCOCc1nc2c(N)nc(C)c(C)c2n1CCCC(=O)N1CCOCC1 [Example 45, 2-(Ethoxymethyl)-6,7-dimethyl-1-(4-morpholin-4-yl-4-oxobutyl)-1H-imidazo[4,5-c]pyridin-4-amine]",156 to 158
2,"Cc1nc2c(N)nc3ccccc3c2n1CCCCC(=O)N1CCOCC1 [Example 47, 2-Methyl-1-(5-morpholin-4-yl-5-oxopentyl)-1H-imidazo[4,5-c]quinolin-4-amine]",218 to 219
3,"CCCc1nc2c(N)nc3c(c2n1CCCCC(=O)N1CCOCC1)CCCC3 [Example 50, 1-(5-Morpholin-4-yl-5-oxopentyl)-2-propyl-6,7,8,9-tetrahydro-1H-imidazo[4,5-c]quinolin-4-amine]",158 to 160
4,"CCCc1nc2c(N)nc3cccnc3c2n1CCCCCC(=O)N1CCOCC1 [Example 53, 1-(6-Morpholin-4-yl-6-oxohexyl)-2-propyl-1H-imidazo[4,5-c][1,5]naphthyridin-4-amine]",148 to 150
5,"CCc1nc2c(N)nc3cccnc3c2n1CCCCCC(=O)N1CCOCC1 [Example 55, 2-Ethyl-1-(6-morpholin-4-yl-6-oxohexyl)-1H-imidazo[4,5-c][1,5]naphthyridin-4-amine]",163 to 165
6,"CCOCc1nc2c(N)nc3cccnc3c2n1CCCCCC(=O)N1CCOCC1 [Example 57, 2-(Ethoxymethyl)-1-(6-morpholin-4-yl-6-oxohexyl)-1H-imidazo[4,5-c][1,5]naphthyridin-4-amine]",168 to 170
7,"CCc1nc2c(N)nc3ccccc3c2n1CC(C)(C)C(N)=O [Example 60, 3-(4-Amino-2-ethyl-1H-imidazo[4,5-c]quinolin-1-yl)-2,2-dimethylpropanamide]",279 to 281
8,"Cc1nc2c(N)nc3ccccc3c2n1CC(C)(C)C(N)=O [Example 61, 3-(4-Amino-2-methyl-1H-imidazo[4,5-c]quinolin-1-yl)-2,2-dimethylpropanamide]",284 to 287
9,"CCCCc1nc2c(N)nc3ccccc3c2n1CC(C)(C)C(N)=O [Example 63, 3-(4-Amino-2-butyl-1H-imidazo[4,5-c]quinolin-1-yl)-2,2-dimethylpropanamide]",231 to 233
10,"CCCc1nc2c(N)nc3ccccc3c2n1CC1(C(N)=O)CCC1 [Example 65, 1-[(4-Amino-2-propyl-1H-imidazo[4,5-c]quinolin-1-yl)methyl]cyclobutanecarboxamide]",234 to 237
11,"CCc1nc2c(N)nc3ccccc3c2n1CC1(C(N)=O)CCC1 [Example 66, 1-[(4-Amino-2-ethyl-1H-imidazo[4,5-c]quinolin-1-yl)methyl]cyclobutanecarboxamide]",227 to 230
12,"CC(C)(Cn1c(CO)nc2c(N)nc3ccccc3c21)C(N)=O [Example 68, 3-[4-Amino-2-(hydroxymethyl)-1H-imidazo[4,5-c]quinolin-1-yl)-2,2-dimethylpropanamide]",201 to 203

# The next lines start with the values.
row,melting point [°C],Structure (SMILES)
1,141 to 143,"CCCCc1nc2c(N)nc3ccccc3c2n1CCCCC(=O)N1CCOCC1 [Example 46, 2-Butyl-1-(5-morpholin-4-yl-5-oxopentyl)-1H-imidazo[4,5-c]quinolin-4-amine]"
2,128 to 129,"CCOCc1nc2c(N)nc3ccccc3c2n1CCCCC(=O)N1CCOCC1 [Example 48, 2-(Ethoxymethyl)-1-(5-morpholin-4-yl-5-oxopentyl)-1H-imidazo[4,5-c]quinolin-4-amine]"
3,198 to 200,"CCOCc1nc2c(N)nc3ccccc3c2n1CCCCC(N)=O [Example 49, 5-[4-Amino-2-(ethoxymethyl)-1H-imidazo[4,5-c]quinolin-1-yl]pentanamide]"
4,207 to 209,"CCCc1nc2c(N)nc3ccccc3c2n1CCC(=O)N(C)C [Example 51, 3-(4-Amino-2-propyl-1H-imidazo[4,5-c]quinolin-1-yl)-N,N-dimethylpropanamide]"
5,219 to 221,"CCCCc1nc2c(N)nc3ccccc3c2n1CCCCC(N)=O [Example 52, 5-(4-Amino-2-butyl-1H-imidazo[4,5-c]quinolin-1-yl)pentanamide]"
6,216.5 to 217.5,"CCCc1nc2c(N)nc3cccnc3c2n1CCCCCC(N)=O [Example 54, 6-(4-Amino-2-propyl-1H-imidazo[4,5-c][1,5]naphthyridin-1-yl)hexanamide]"
7,220 to 221,"CCc1nc2c(N)nc3cccnc3c2n1CCCCCC(N)=O [Example 56, 6-(4-Amino-2-ethyl-1H-imidazo[4,5-c][1,5]naphthyridin-1-yl)hexanamide]"
8,215 to 217,"CCOCc1nc2c(N)nc3cccnc3c2n1CCCCCC(N)=O [Example 58, 6-[4-Amino-2-(ethoxymethyl)-1H-imidazo[4,5-c][1,5]naphthyridin-1-yl]hexanamide]"
9,> 300,"CCCc1nc2c(N)nc3ccccc3c2n1CC(N)=O [Example 59, 2-(4-Amino-2-propyl-1H-imidazo[4,5-c]quinolin-1-yl)acetamide]"
10,230.5 to 232.5,"CCOCc1nc2c(N)nc3ccccc3c2n1CC1(C(N)=O)CC1 [Example 64, 1-{[4-Amino-2-(ethoxymethyl)-1H-imidazo[4,5-c]quinolin-1-yl]methyl}cyclopropanecarboxamide]"
11,221 to 223,"CCOCc1nc2c(N)nc3ccccc3c2n1CC1(C(N)=O)CCCCC1 [Example 67, 1-{[4-Amino-2-(ethoxymethyl)-1H-imidazo[4,5-c]quinolin-1-yl]methyl}cyclohexanecarboxamide]"
